# Test results: US11261222B2, “Transdermal peptide with nuclear localization ability and use thereof” (SOOCHOW UNIVERSITY, priority 2017, dated 2022)
# Where a SMILES comes first, the peptide text is derived from it. The star is where a group is joined. FITC = O=C1OC2(c3ccc(O)cc3Oc3cc(O)ccc32)c2ccc(NC(=S)*)cc21
# Columns and labels:
# skin of SD rats = test: transdermal penetration effect on back skin of SD rats, fluorescence microscopy of skin sections; type: in vivo; details: 50 μL of 500 μmol/L FITC-labeled peptide solution applied on back skin, three hours
# Method: The experiments were performed using 8-week old SD rats (body weight 250 g). The back of SD rats was shaved, and the FITC-labeled peptide and control peptide prepared in Example 1 were each dissolved in a phosphate buffer (PBS, pH=7.4) to prepare a solution having a concentration of 500 μmol/L. The SD rats were divided into three groups, including: 1) a control group, in which no polypeptide solution was applied on the back; 2) a control group, in which the peptide as shown in SEQ ID NO: 3 was applied on the dorsal epidermis of rats; and 3) a treatment group, in which the peptide as shown in SEQ ID NO: 1 was applied on the back skin of rats. The rats in Groups 2) and 3) were each applied with 50 μL of the polypeptide solution. After three hours, the polypeptide in the applied area was washed off; the SD rats were sacrificed, and the skin applied with the polypeptide was taken, frozen, sectioned, and then observed under a fluorescence microscope.
# [1] = isoelectric point of the transdermal peptide; type: physicochemical
Compound,fluorescence in the dermal tissue of the skin (skin of SD rats),isoelectric point [1]
"CC[C@H](C)[C@H](NC(=O)[C@H](CC(=O)O)NC(=O)[C@H](CCCCN)NC(=O)[C@H](CO)NC(=O)[C@H](Cc1c[nH]c2ccccc12)NC(=O)[C@H](C)NC(=O)[C@H](CC(C)C)NC(=O)[C@H](Cc1c[nH]cn1)NC(=O)[C@H](CC(=O)O)NC(=O)[C@H](CCC(=O)O)NC(=O)[C@@H](NC(=O)[C@H](CO)NC(=O)[C@H](CC(=O)O)NC(=O)[C@@H](NC(=O)[C@H](CO)NC(=O)[C@H](CC(C)C)NC(=O)[C@H](C)NC(=O)[C@@H](NC(=S)Nc1ccc2c(c1)C(=O)OC21c2ccc(O)cc2Oc2cc(O)ccc21)[C@@H](C)CC)[C@@H](C)CC)C(C)C)C(=O)N[C@@H](CC(N)=O)C(=O)N[C@@H](C)C(=O)O [irrelevant control polypeptide, reference compound] ({FITC}-IALSIDSVEDHLAWSKDINA-OH)",no green fluorescence in the dermal tissue,–
CC(C)C[C@H](NC(=O)[C@H](Cc1ccc(O)cc1)NC(=O)[C@H](CCCCN)NC(=O)[C@H](CCCCN)NC(=O)CNC(=O)[C@H](CO)NC(=O)[C@@H]1CCCN1C(=O)[C@H](CC(C)C)NC(=O)[C@H](CCC(=O)O)NC(=O)[C@H](CCCCN)NC(=O)[C@@H](NC(=O)[C@H](Cc1ccccc1)NC(=O)[C@@H](NC(=O)CNC(=O)[C@H](CCCCN)NC(=O)[C@@H]1CCCN1C(=O)[C@H](Cc1ccccc1)NC(=O)[C@H](CC(C)C)NC(=O)[C@H](CCCCN)NC(=O)[C@H](CCCCN)NC(=S)Nc1ccc2c(c1)C(=O)OC21c2ccc(O)cc2Oc2cc(O)ccc21)C(C)C)[C@@H](C)O)C(=O)N[C@@H](CCCNC(=N)N)C(=O)O [peptide of the present invention] ({FITC}-KKLFPKGVFTKELPSGKKYLR-OH),clearly observed in the skin appendages of the dermis,–
"transdermal peptide with a nuclear localization ability: transdermal peptide with amino acid sequence as shown in SEQ ID NO: 1, enters eukaryotic cells autonomously (KKLFPKGVFTKELPSGKKYLR; Transdermal peptide)",–,10.92
